Consider 50 molecules from PMC11995724, “Antibiotic target discovery by integrated phenotypic and activity-based profiling of electrophilic fragments” (Cell chemical biology, 2025).

This series in a line: in vitro. Conditions: human, hek293t cells.
Regarding `CC(Cl)C(=O)N1CCN(Cc2cc(=O)n3ccsc3n2)CC1` (centres unmarked) [6-P17, 7-{[4-(2-chloropropanoyl)piperazin-1-yl]methyl}-5H-[1,3]thiazolo[3,2-a]pyrimidin-5-one], the viability (usually a read-out of living cells in per cent, often relative to untreated cells) at 48 h, 25 µM was determined as 113%. The value for `Cc1nc2ccccc2n(CCCNC(=O)C(C)Cl)c1=O` (centres unmarked) [7-O21, 2-chloro-N-[3-(3-methyl-2-oxo-1,2-dihydroquinoxalin-1-yl)propyl]propanamide] was 59.4%; that for `C=CC(=O)N1CCC(Cc2nc3ccc(F)cc3o2)CC1` [3-O07, 1-{4-[(6-fluoro-1,3-benzoxazol-2-yl)methyl]piperidin-1-yl}prop-2-en-1-one] was 47.3%. Turning to `CC(Cl)C(=O)NCC(=O)Nc1ccc(F)c(F)c1F` (centres unmarked) [4-D20, 2-chloro-N-{[(2,3,4-trifluorophenyl)carbamoyl]methyl}propanamide], the viability at 48 h, 25 µM stood at 118%. As for `C=CC(=O)Nc1cc(C)n(CC(C)c2nnc3n2CCCCC3)n1` (centres unmarked) [2-A17, N-[5-methyl-1-(2-{5H,6H,7H,8H,9H-[1,2,4]triazolo[4,3-a]azepin-3-yl}propyl)-1H-pyrazol-3-yl]prop-2-enamide], the viability at 48 h, 25 µM was 175%. Consider `Cn1cc(CN(C(=O)CCl)c2ccc(F)cc2)cn1` [6-D08, 2-chloro-N-(4-fluorophenyl)-N-[(1-methyl-1H-pyrazol-4-yl)methyl]acetamide], for which the viability at 48 h, 25 µM is 2.1%.

`C=CC(=O)Nc1ccc(S(=O)(=O)N(C)C)c(C)c1` [2-E06, N-[4-(dimethylsulfamoyl)-3-methylphenyl]prop-2-enamide]: the viability at 48 h, 25 µM turned out to be 78.7%. On to `C=CC(=O)Nc1cc(NC(=O)c2cnn(-c3ccccc3)c2)ccc1F` [2-G11, N-[4-fluoro-3-(prop-2-enamido)phenyl]-1-phenyl-1H-pyrazole-4-carboxamide], for which the viability at 48 h, 25 µM was determined as 0.749%. Take `COC(=O)c1c(C(=O)CCl)c(C)n(C2CC2)c1C` [10-H03, methyl 4-(2-chloroacetyl)-1-cyclopropyl-2,5-dimethyl-1H-pyrrole-3-carboxylate]: the viability at 48 h, 25 µM was 93.4%.

Regarding `CCc1ccc(NC(=O)CCl)cc1` [4-P03, 2-chloro-N-(4-ethylphenyl)acetamide], the viability at 48 h, 25 µM was 0.338%. Then `C=CC(=O)Nc1cnn(CC(F)(F)F)c1` [1-A11, N-[1-(2,2,2-trifluoroethyl)-1H-pyrazol-4-yl]prop-2-enamide], with 91.8%; and `C=CC(=O)NCc1cc(-c2cccc(OC)c2)no1` [1-I11, N-{[3-(3-methoxyphenyl)-1,2-oxazol-5-yl]methyl}prop-2-enamide], with 76.7%.

Take `CCn1nc(C)c(CN(C)C(=O)CCl)c1C` [5-A10, 2-chloro-N-[(1-ethyl-3,5-dimethyl-1H-pyrazol-4-yl)methyl]-N-methylacetamide]: the viability at 48 h, 25 µM was determined as 1.55%. The value for `N#CC(=Cc1ccc(C#N)cc1)C(=O)Nc1cccc2ccccc12` [8-O16, 2-cyano-3-(4-cyanophenyl)-N-(naphthalen-1-yl)prop-2-enamide] was 38.3%; that for `CC(Cl)C(=O)NC1CC(C)N(c2ccccc2)C1` (centres unmarked) [6-L15, 2-chloro-N-(5-methyl-1-phenylpyrrolidin-3-yl)propanamide] was 99.3%; that for `NC(=O)CSc1ccccc1NC(=O)CCl` [4-A15, 2-{[2-(2-chloroacetamido)phenyl]sulfanyl}acetamide] was 1.71%. On to `Cc1cc(C(=O)CCl)c(C)n1Cc1cccs1` [10-D03, 2-chloro-1-{2,5-dimethyl-1-[(thiophen-2-yl)methyl]-1H-pyrrol-3-yl}ethan-1-one], for which the viability at 48 h, 25 µM worked out at 104%.

Turning to `C=CC(=O)Nc1nn(C2CCCC2)c(C)c1Cl` [1-O06, N-(4-chloro-1-cyclopentyl-5-methyl-1H-pyrazol-3-yl)prop-2-enamide], the viability at 48 h, 25 µM worked out at 78.2%.

As for `C=CC(=O)NCCc1c(C)oc2ccccc12` [1-N07, N-[2-(2-methyl-1-benzofuran-3-yl)ethyl]prop-2-enamide], the viability at 48 h, 25 µM was 119%. As for `C=CC(=O)NCC(C)Cn1ccc(C)n1` (centres unmarked) [2-D03, N-[2-methyl-3-(3-methyl-1H-pyrazol-1-yl)propyl]prop-2-enamide], the viability at 48 h, 25 µM was 99.9%. In the case of `CCC(=O)Nc1cccc(NC(=O)CCl)c1C` [5-K04, N-[3-(2-chloroacetamido)-2-methylphenyl]propanamide], the viability at 48 h, 25 µM turned out to be 2.12%. As for `O=C(CCl)Nc1ccccc1OC(F)F` [4-N09, 2-chloro-N-[2-(difluoromethoxy)phenyl]acetamide], the viability at 48 h, 25 µM was found to be 0.7%. Consider `CCCCNC(=O)C(C#N)=Cc1ccc(Cl)cc1` [9-H13, N-butyl-3-(4-chlorophenyl)-2-cyanoprop-2-enamide], for which the viability at 48 h, 25 µM amounted to 72.9%. In the case of `CC(Cl)C(=O)N(C)Cc1ncnn1CC(F)F` (centres unmarked) [7-C10, 2-chloro-N-{[1-(2,2-difluoroethyl)-1H-1,2,4-triazol-5-yl]methyl}-N-methylpropanamide], the viability at 48 h, 25 µM worked out at 97.8%.

With `C=CC(=O)NCC1CCS(=O)(=O)C1(C)C` (centres unmarked) [1-O16, N-[(2,2-dimethyl-1,1-dioxo-1lambda6-thiolan-3-yl)methyl]prop-2-enamide], the viability at 48 h, 25 µM came to 103%.

For the molecule `C=CC(=O)Nc1ccc2c(c1)N(C)CC2` [1-G13, N-(1-methyl-2,3-dihydro-1H-indol-6-yl)prop-2-enamide], the viability at 48 h, 25 µM is 67.7%. As to `C=CC(=O)N1CCCN(C(=O)c2ccc(OC)cc2)CC1` [3-A21, 1-[4-(4-methoxybenzoyl)-1,4-diazepan-1-yl]prop-2-en-1-one], the viability at 48 h, 25 µM came out at 53.5%. The value for `C=CC(=O)NCc1ccc(C(=O)N2CCCC23CCOC3=O)cc1` (centres unmarked) [3-I06, N-[(4-{6-oxo-7-oxa-1-azaspiro[4.4]nonane-1-carbonyl}phenyl)methyl]prop-2-enamide] was 88.5%; that for `CCOc1cc(C=C(C#N)C(=O)Nc2nccs2)cc(Cl)c1O` [9-K22, 3-(3-chloro-5-ethoxy-4-hydroxyphenyl)-2-cyano-N-(1,3-thiazol-2-yl)prop-2-enamide] was 110%; that for `Cc1cnc(C(C)N2CCN(C(=O)C(C)Cl)CC2)s1` (centres unmarked) [7-M03, 2-chloro-1-{4-[1-(5-methyl-1,3-thiazol-2-yl)ethyl]piperazin-1-yl}propan-1-one] was 97.5%. For `CC(Cl)C(=O)N(C)CC(=O)Nc1ccccc1C(F)(F)F` (centres unmarked) [4-N05, 2-chloro-N-methyl-N-({[2-(trifluoromethyl)phenyl]carbamoyl}methyl)propanamide], the viability at 48 h, 25 µM came out at 79.8%. For the molecule `C=CC(=O)Nc1nn(CC(C)C)cc1Cl` [2-G05, N-[4-chloro-1-(2-methylpropyl)-1H-pyrazol-3-yl]prop-2-enamide], the viability at 48 h, 25 µM was 103%.

`CC(C)NC(=O)C(C#N)=Cc1ccc2ccccc2c1` [9-C13, 2-cyano-3-(naphthalen-2-yl)-N-(propan-2-yl)prop-2-enamide]: the viability at 48 h, 25 µM was 77.9%. Take `N#CC(=Cc1cc2cc(F)ccc2o1)C(=O)NC(N)=O` [8-C22, {2-cyano-2-[(5-fluoro-1-benzofuran-2-yl)methylidene]acetyl}urea]: the viability at 48 h, 25 µM amounted to 79.1%. For `CC(=O)c1ccc(NC(=O)CCl)cc1` [4-G07, N-(4-acetylphenyl)-2-chloroacetamide], the viability at 48 h, 25 µM turned out to be 0.0514%. On to `C=CC(=O)N1CCCc2cccc(F)c21` [1-L19, 1-(8-fluoro-1,2,3,4-tetrahydroquinolin-1-yl)prop-2-en-1-one], for which the viability at 48 h, 25 µM came out at 112%. `Cc1ccc(C=C(C#N)C(N)=O)c(C)c1` [9-M04, 2-cyano-3-(2,4-dimethylphenyl)prop-2-enamide]: the viability at 48 h, 25 µM was 115%. Turning to `CC(=Cc1ccccc1)C=C(C#N)C(=O)NC1CC1` [9-F12, 2-cyano-N-cyclopropyl-4-methyl-5-phenylpenta-2,4-dienamide], the viability at 48 h, 25 µM came out at 92.3%. As for `CC(Cl)C(=O)N1CCN(CC(F)(F)C(F)F)CC1` (centres unmarked) [7-J07, 2-chloro-1-[4-(2,2,3,3-tetrafluoropropyl)piperazin-1-yl]propan-1-one], the viability at 48 h, 25 µM was 96.1%. Then `C=CC(=O)N1CCC(Cc2nccs2)C1` (centres unmarked) [3-O16, 1-{3-[(1,3-thiazol-2-yl)methyl]pyrrolidin-1-yl}prop-2-en-1-one], with 98.7%; and `CC(CO)(Cc1ccc(F)cc1)NC(=O)CCl` (centres unmarked) [7-F06, 2-chloro-N-{2-[(4-fluorophenyl)methyl]-1-hydroxypropan-2-yl}acetamide], with 3.71%. Consider `Cc1ccc(NC(=O)C(C)Cl)cc1S(=O)(=O)N1CCOCC1` (centres unmarked) [5-D22, 2-chloro-N-[4-methyl-3-(morpholine-4-sulfonyl)phenyl]propanamide], for which the viability at 48 h, 25 µM was determined as 77.8%. Then `Cc1ccc2sc(N(Cc3ccccc3)C(=O)CCl)nc2c1C` [4-K06, N-benzyl-2-chloro-N-(4,5-dimethyl-1,3-benzothiazol-2-yl)acetamide], with -0.0749%. With `CC(Cl)C(=O)N1CCCC1c1cccc2c1OCCO2` (centres unmarked) [7-L11, 2-chloro-1-[2-(2,3-dihydro-1,4-benzodioxin-5-yl)pyrrolidin-1-yl]propan-1-one], the viability at 48 h, 25 µM is 89.6%. On to `COc1cccc2c1CCC2(CO)NC(=O)CCl` (centres unmarked) [5-C20, 2-chloro-N-[1-(hydroxymethyl)-4-methoxy-2,3-dihydro-1H-inden-1-yl]acetamide], for which the viability at 48 h, 25 µM turned out to be 58.2%.

As for `Cc1ccc(NC(=O)C(C#N)=Cc2ccsc2)c(C)c1` [9-M19, 2-cyano-N-(2,4-dimethylphenyl)-3-(thiophen-3-yl)prop-2-enamide], the viability at 48 h, 25 µM was 102%. The value for `CCN(C(=O)C(C)Cl)C1CCCCC1` (centres unmarked) [5-I19, 2-chloro-N-cyclohexyl-N-ethylpropanamide] was 134%; that for `C=CC(=O)N1CCC(C(=O)NCCC2CCS(=O)(=O)C2)CC1` (centres unmarked) [2-H05, N-[2-(1,1-dioxo-1lambda6-thiolan-3-yl)ethyl]-1-(prop-2-enoyl)piperidine-4-carboxamide] was 78.2%; that for `C=CC(=O)NCC1CCCC(C2CC2)O1` (centres unmarked) [1-M17, N-[(6-cyclopropyloxan-2-yl)methyl]prop-2-enamide] was 88.7%.

On to `CC(Cl)C(=O)NCc1cccc(N2C(=O)NC3(CCCC3)C2=O)c1` (centres unmarked) [7-O18, 2-chloro-N-[(3-{2,4-dioxo-1,3-diazaspiro[4.4]nonan-3-yl}phenyl)methyl]propanamide], for which the viability at 48 h, 25 µM was found to be 103%.
